Assay results: PubChem BioAssay (NCI)
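Exposure lasted 48 hours, with cells grown in 96-well plates and compounds tested at five concentrations. GI50 marks 50% less growth. TGI: total growth inhibition.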

What was measured:
Assay in all cases: NCI-60 cell line screen, 48 h
[1] = test system: ACHN renal
[2] = test system: UACC-257 melanoma
[3] = test system: UACC-62 melanoma
[4] = test system: OVCAR-8 ovarian
[5] = test system: CCRF-CEM leukemia
[6] = test system: NCI-H460 lung
[7] = test system: NCI-H23 lung
[8] = test system: COLO 205 colon
[9] = test system: SF-539 CNS
[10] = test system: OVCAR-4 ovarian

| Compound | TGI [1] | TGI [2] | TGI [3] | TGI [4] | TGI [5] | TGI [6] | TGI [7] | TGI [8] | TGI [9] | TGI [10] | GI50 [1] | GI50 [6] | GI50 [7] | GI50 [2] | GI50 [4] | GI50 [8] | GI50 [3] | GI50 [5] | GI50 [9] | GI50 [10] |
| --- | --- | --- | --- | --- | --- | --- | --- | --- | --- | --- | --- | --- | --- | --- | --- | --- | --- | --- | --- | --- |
| N#Cc1nc(Cc2cccs2)oc1N | > 100 µM | > 100 µM | > 100 µM | > 100 µM | > 100 µM |  |  |  |  |  |  |  |  |  |  |  |  |  |  |  |
| c1csc(-c2csc(-c3cccs3)c2)c1 | > 100 µM | > 100 µM | > 100 µM | > 100 µM | > 100 µM | > 100 µM | 63.1 µM | 32.8 µM | > 100 µM | > 100 µM |  |  |  |  |  |  |  |  |  |  |
| C1CN(C23OC4(N5CCOCC5)C5C6CC(C7C6C4C72)C53)CCO1 (stereo not given) | > 31.6 µM | > 100 µM | > 100 µM | > 100 µM | > 100 µM | > 100 µM | > 100 µM | > 100 µM | > 100 µM | > 100 µM |  |  |  |  |  |  |  |  |  |  |
| CC(C)(C)OC(=O)N[C@@H](Cc1ccccc1)C(=O)N1CC[C@@H](C(=O)N2[C@H]3CC4CC[C@@]3(CS2(=O)=O)C4(C)C)N1 | > 100 µM | > 100 µM | > 100 µM | > 100 µM | > 100 µM | > 100 µM | > 100 µM | > 100 µM |  | > 100 µM |  |  |  |  |  |  |  |  |  |  |
| CC1(C)CN=C(c2ccc3ccccc3c2O)N1 | > 100 µM | > 100 µM | > 100 µM |  | > 100 µM | > 100 µM | > 100 µM | > 100 µM | > 100 µM | > 100 µM |  |  |  |  |  |  |  |  |  |  |
| COC(=O)C[C@H]1[C@]2(C)C3=C(C)[C@H](c4ccoc4)CC3O[C@@H]2[C@@H]2OC(=O)[C@]3(C)CCC(=O)[C@@]1(C)[C@@H]23 (stereo not given in full) | > 100 µM | > 100 µM | > 100 µM | > 100 µM | 45.1 µM | > 100 µM | > 100 µM | > 100 µM |  | > 100 µM |  |  |  |  |  |  |  |  |  |  |
| CN(NC(=O)/C(=C/C=C/c1ccccc1)NC(=O)c1ccccc1)C1=C(Cl)C(=O)[N+](c2ccccc2)=CC1 | 81 µM | > 100 µM |  | 40.3 µM |  | > 100 µM | > 100 µM | 33.7 µM | 38 µM | 64 µM |  |  |  |  |  |  |  |  |  |  |
| CC[N+]1(C)CCC(O)(/C=C/c2ccc(Cl)c(Cl)c2)C(C(=O)/C=C/c2ccc(Cl)c(Cl)c2)C1 (stereo not given) | 4.15 µM | 5.96 µM | 3.64 µM | 8.97 µM |  | 9.03 µM | 7.03 µM | 10.2 µM | 9.13 µM |  |  |  |  |  |  |  |  |  |  |  |
| CCOC(=O)C1C2C1C1C(C(=O)OCC)C21 (stereo not given) | > 100 µM | > 100 µM | > 100 µM | > 100 µM | > 100 µM | > 100 µM | > 100 µM | > 100 µM | > 100 µM | > 100 µM |  |  |  |  |  |  |  |  |  |  |
| Cc1cccc(/C=N/NC(=S)NC(C)(C)C)n1 | > 100 µM | > 100 µM | > 100 µM | > 100 µM | > 100 µM | > 100 µM | > 100 µM | > 100 µM | > 100 µM | > 100 µM |  |  |  |  |  |  |  |  |  |  |
| CC(=O)N/N=C1\NN(C(C)=O)C2(S1)C(=O)Nc1ccccc12 (stereo not given) | > 100 µM |  | > 100 µM | > 100 µM | > 100 µM | > 100 µM | > 100 µM |  | > 100 µM | > 100 µM |  |  |  |  |  |  |  |  |  |  |
| NC(=S)NS(=O)(=O)c1ccc(Cl)cc1Cl | > 100 µM | > 100 µM | > 100 µM | > 100 µM | > 100 µM | > 100 µM | > 100 µM | > 100 µM | > 100 µM | > 100 µM |  |  |  |  |  |  |  |  |  |  |
| CCCCCCCCCC[C@@H](O)[C@H]1CC[C@@H]([C@H]2CC[C@H]([C@H](O)CCCCCCCCCC[C@@H]3CC(CC(C)=O)C(=O)O3)O2)O1 (stereo not given in full) |  | 66.3 µM |  | > 100 µM | > 100 µM | > 100 µM | > 100 µM | 32.2 µM |  | 85.5 µM | 14.6 µM | 64.7 nM | 754 nM | 3.23 µM | 22.7 µM | 15.6 µM |  |  |  |  |
| O=C(O)C1(Cc2ccc3c(c2)CCC3)Cc2cc3c(cc2C1)CCC3 | > 100 µM |  | > 100 µM | > 100 µM | > 100 µM |  |  | > 100 µM | > 100 µM | > 100 µM |  |  |  |  |  |  |  |  |  |  |
| O=C(O)c1cc2c(cc1CC(Cc1ccccc1)C(=O)O)CCC2 (stereo not given) | > 100 µM | > 100 µM |  | > 100 µM | > 100 µM | > 100 µM | > 100 µM | > 100 µM | > 100 µM | > 100 µM |  |  |  |  |  |  |  |  |  |  |
| Cc1cc2nnn(C3CCCO3)c2cc1C (stereo not given) |  | > 100 µM | > 100 µM | > 100 µM | > 100 µM | > 100 µM | > 100 µM | > 100 µM | > 100 µM |  |  |  |  |  |  |  |  |  |  |  |
| COc1cccc(C2c3cc4c(cc3OC(N3CCOCC3)C2C)OCO4)c1 (stereo not given) | > 100 µM | > 100 µM |  | > 100 µM |  | 37.7 µM |  | 29.8 µM |  | 61 µM |  |  |  |  |  |  |  |  |  |  |
| Cc1ccc(N=Nc2cc(=O)[nH]c(=O)[nH]2)cc1C | 24.4 µM | 28.7 µM |  | 30.9 µM | > 100 µM | 41.6 µM |  | 19.9 µM | 27.6 µM | 31.8 µM |  |  |  |  |  |  |  |  |  |  |
| Cc1cccc(-c2cc(=O)c3c(C)ccnc3[nH]2)c1 | > 100 µM |  | > 100 µM | > 100 µM | > 100 µM | 16.3 µM | > 100 µM | 2.68 µM | > 100 µM | > 100 µM |  |  |  |  |  |  |  |  |  |  |
| COc1cccc2c1C(=O)c1c(O)c3c(c(O)c1C2=O)C[C@](O)(C(=O)CO)CC3OC1CC(N)C(OC2CCCCO2)C(C)O1 (stereo not given in full) |  | 2.5 µM | 1.11 µM | 14 µM |  | 0.208 µM | 1.97 µM | 2.61 µM | 1.41 µM | 4.2 µM |  |  |  |  |  |  |  |  |  |  |
| CN(CCc1ccccn1)C(=S)N/N=C/c1ccccn1 | 1.41 µM | 0.895 µM | 15.7 µM |  | < 0.01 µM | 2.07 µM | 13.8 µM | 0.727 µM | 0.365 µM | 21.4 µM |  |  |  |  |  |  |  |  |  |  |
| Cn1c(=O)n2n(c1=O)C1C(=CC2)C2C=CC1n1c(=O)n(C)c(=O)n12 (stereo not given) | > 100 µM | > 100 µM | > 100 µM | > 100 µM | > 100 µM | > 100 µM | > 100 µM | > 100 µM | > 100 µM |  |  |  |  |  |  |  |  |  |  |  |
| CCC[CH2][Ge]([CH2]CCC)([CH2]CCC)[O]C(=O)CCl | 18.4 µM |  | 8.67 µM | 22 µM | 17.9 µM | 13.2 µM | 12.5 µM | 24 µM | 6.85 µM | 21.5 µM | 2.71 µM | 518 nM | 115 nM |  | 5.19 µM | 10.4 µM | 1070 nM | 406 nM | 1650 nM | 2760 nM |
